{
  "source": "patent US6987121B2",
  "about": "“Compositions and methods for hepatoprotection and treatment of cholestasis” (SmithKline Beecham Corporation, priority 2002, dated 2006)",
  "key": {"[1]": {"system": "bile duct-ligated (BDL) rats", "assay": "Serum markers of liver function in bile duct-ligated (BDL) rats", "format": "in vivo, Sprague-Dawley rats", "details": "GW4064 100 mg/kg daily i.p. for 7 days", "protocol": "(§1) Male Sprague-Dawley rats (approximately 300 grams) were obtained from Charles River Laboratories Inc (Raleigh, N.C.) and were maintained on a 12 hour light/12 hour dark light cycle. Animals were anesthetized by the administration of 2-3% isoflurane. Laparotomy was performed under sterile technique and the liver and duodenum gently displaced to reveal the common bile duct. The bile duct was separated from the surrounding tissue and two ligatures of 4-0 Ethilon were placed around it. The bile duct was clamped between the two ligatures with an aneurysm clamp and the ligatures drawn tight. An additional ligature was placed proximal to the first (near the liver). The clamp was removed and the bile duct severed between the ligatures. The muscle wall was closed with 4-0 Vicryl and the skin closed with staples. Animals were allowed to recover for 24 hours prior to administration of drug (GW4064, 100 mg/kg daily in corn oil/10% DMSO) or vehicle alone (in corn oil/10% DMSO) by a daily intra-peritoneal injection for 7 days prior to sacrifice. Animals were allowed food and water ad libitum throughout the study period. Animals were anesthetized with 2-3% isoflurane and sacrificed by cardiac puncture.\nSerum levels of alanine aminotransferase (ALT), asparate aminotransferase (AST), total bilirubin (TBILI), and γ-glutamyl transferase (GGT) were determined using an Instrumentation Laboratory Ilab600 clinical chemistry analyzer. Serum bile acids (BILEA) were determined using a commercially available assay (Sigma Chemical Co., St Louis, Mo.)."}, "[2]": {"system": "bile duct-ligated (BDL) rats", "assay": "Histological examination of liver samples from BDL rats", "format": "in vivo, Sprague-Dawley rats", "details": "GW4064 100 mg/kg daily i.p. for 7 days", "protocol": "as §1\nA section of the liver was removed and placed into 10% neutral buffered formalin. […]"}},
  "data": [
    {"smiles": "CC(C)c1onc(-c2c(Cl)cccc2Cl)c1COc1ccc(/C=C/c2cccc(C(=O)O)c2)c(Cl)c1", "note": "[GW4064]", "values": [
      {"measurement": "Liver function as defined by the panel of enzymes examined", "setting": "[1]", "result": "pronounced improvement in liver function"},
      {"measurement": "Serum level of ALT, as % of that in BDL rats receiving vehicle alone", "setting": "[1]; corn oil/10% DMSO", "result": 23, "unit": "%"},
      {"measurement": "Serum level of AST, as % of that in BDL rats receiving vehicle alone", "setting": "[1]; corn oil/10% DMSO", "result": 27, "unit": "%"},
      {"measurement": "Serum level of GGT, as % of that in BDL rats receiving vehicle alone", "setting": "[1]; corn oil/10% DMSO", "result": 34, "unit": "%"},
      {"measurement": "Serum level of TBILI, as % of that in BDL rats receiving vehicle alone", "setting": "[1]; corn oil/10% DMSO", "result": 49, "unit": "%"},
      {"measurement": "Liver histology: bile duct proliferation", "setting": "[2]", "result": "only bile duct proliferation"},
      {"measurement": "Liver histology: necrosis", "setting": "[2]; vehicle-treated showed large areas of necrosis", "result": "no necrosis"}
    ]}
  ]
}
